Columns and labels:
[1] = Transport experiment in the in vitro BBB cell model; format: in vitro ADME; conditions: Sprague-Dawley, rat, C0 20 μM, apical to basolateral, mean ± SD (n = 3-4), read-out: Papp × 10^−6
Method: Rat brain microvascular endothelial cells (BMECs) were separated from the cerebral cortex of 18-day-old male Sprague-Dawley rats as described previously ([Biegel et al., 1995]). Briefly, the cerebral cortical tissues were dissected from meninges after the rats were sacrificed, then the tissues were homogenated in physiological buffer solution (pH 7.4). After centrifugation, the pellets were collected, and the microvascular segments were then digested with 0.1% collagenase II at 37°C for 1 h. […] The second passage was used for co-culture of BBB cellular models.
Astrocytes were separated from the cerebral cortex of newborn Sprague-Dawley rats (1–2 days) as described previously ([Jeliazkova-Mecheva and Bobilya, 2003]). The brain tissues (removal of the meninges and blood vessel) were minced and mechanical homogenized and then digested with 0.25% trypsin-EDTA at 37°C for 10 min.
The in vitro BBB cell model was constructed in the Transwell 24well plate ([…], Millipore, USA). Before the experiment, the transwell filters were coated with matrigel matrix. The isolated rat astroglias were seeded onto one side of polycarbonate inserts (5 × 10^4 cells/insert). After 3 to 5 days, the rat BMECs were seeded at a density of 1.5 × 10^5 cells/insert onto the opposite side of the inserts to produce rat BMEC monolayers. The in vitro BBB cell model was formed 3 to 4 days. Trans-epithelial electrical resistance (TEER) measurements were performed everyday after the co-cultures formed until the TEER value increased to […] ([Yang et al., 2014]) ( Figure 2C ).
The transport experiments were performed by adding 400 μl HBSS containing the compounds to the apical side (AP), with 600μl HBSS to the basolateral side (BL) at the same time. Samples (60 μl) were collected from the BL chamber at the time points of 15, 30, 60, 90, 120, and 180 min, and the corresponding volume of HBSS buffer was immediately added into the BL chamber. The samples were precipitated by methanol, and the concentrations of the compounds in the samples were determined by high-performance liquid chromatography (HPLC). The HPLC conditions were as follows: Agilent TC-C18 column (250 × 4.6 mm; 5 μm), methanol 1% ethanoic acid mobile phase (from 10:90 to 90:10, v/v), with gradient elution at a flow rate of 1.0 ml/min. The detection wavelength was 275 nm for these compounds. The run time was 20 min. The apparent permeability coefficients (P app) were calculated from the following formula: P app = (∆Q/∆t)/(A × C 0), where ∆Q/∆t is the linear appearance rate of the compound on the BL side (μmol/s), A is the surface area of the cell monolayer (cm^2), and C 0 is the initial concentration of the drug on the AP side (μmol/L).

human glioma U87 cells = assay: Anti-glioma MTT assay, U87 cells; format: cell-based; conditions: for IC50: Homo sapiens, U-87 MG, U87 cells
Method: The anti-glioma effects of these compounds were evaluated by MTT assay in rat C6 glioma cells, human glioma U87 and U251 cells, and BMECs cells. Brieﬂy, cells were seeded at the density of 4,000 cells/well in 96-well plates overnight. For the first screening, the cells were incubated with 10, 20, 100 μM compounds for 48 h. Then cell viabilities were detected by MTT assay as described above. For the second screening, the cells were incubated with 6.25-, 12.5-, 25-, 50-, and 100μM compounds for 48 and 96 h, and then detected by MTT assay. The OD of each well was measured at 490 nm on an ELISA microplate reader. The inhibitory rates and IC50 values were calculated.

ROS levels in U87 cells = assay: Intracellular ROS levels (DCF, flow cytometry), U87 cells; format: cell-based, human; conditions: 20 and 50 μM, 48 h, P < 0.05
Method: Intracellular reactive oxygen species (ROS) levels were detected using Reactive Oxygen Species Assay Kit (Jiancheng Bioengineering, Nanjing, China) as per the manufacturer’s instruction. Brieﬂy, after treatment with indicated concentrations of test compound (20, 50 μM) for 48 h, the cells were incubated in 1 ml 2,7-dichloroﬂuorescin diacetate working solution (100 μM) for 30 min at 37°C in the dark, and washed with PBS. Then ﬂuorescence intensities of intracellular DCF were detected using a FACS Calibur ﬂow cytometer (Becton-Dickinson, San Jose, CA, USA). H2O2 treatment group was used as the positive control group.

NADPH oxidase (NOX) [2] = assay: NOX activity determination, C6 cells; format: cell-based, rat; conditions: 20 and 50 μM
Method: (§1) The effects of candidate drug on NOX activities were measured using cytochrome c reductase (NADPH) Assay Kit (Sigma-Aldrich, St. Louis, MO, USA). Brieﬂy, after the compound treatment (20, 50 μM), the cells were collected and homogenized in an isotonic buffer ([…]), and centrifuged at 1,000 g to obtain the post-nuclear supernatants. Then 50μl samples were added to 950μl working solution (at 25°C) in a 1ml cuvette and mixed by inversion. Then 20μl cytochrome c oxidase inhibitor solution was added. After reaction with 100 μl NADPH solution, the cytochrome c absorbance was monitored at 550 nm by a spectrophotometer.

NADPH oxidase (NOX) [3] = assay: NOX activity determination, U87 cells; format: cell-based, human; conditions: 20 and 50 μM
Method: as §1

C6 cells = assay: Apoptosis by Annexin V-FITC/PI staining, C6 cells; format: cell-based, rat; conditions: 48 h, mean ± SD
Method: (§2) The effects of test compound on apoptosis were detected by Annexin V-FITC/PI staining. Briefly, after treatment with indicated concentrations of test compounds (20, 50 μM) for 48 h, the cells were collected and resuspended in 500-μl detection buffer. Then 5μl PI and 5μl Annexin V-FITC were added to the detection buffer. Then, cells were incubated for 15 min in the dark and analyzed using Flow cytometer (Becton Dickinson) and WinMDI 2.8 software (Scripps Institute, La Jolla, CA, USA).

U87 cells = assay: Apoptosis by Annexin V-FITC/PI staining, U87 cells; format: cell-based, human; conditions: 48 h, mean ± SD
Method: as §2

[4] = test system: NF-κB pathway-related proteins; assay: Western blot of NF-κB pathway-related proteins, U87 cells; format: cell-based, human; conditions: 20 and 50 μM, 48 h
Method: Briefly, after treatment with indicated concentrations of test compound (20, 50 μM) for 48 h, the cells were collected, and total cell lysates and nucleus fractions were extracted. Twenty micrograms of cellular protein were subjected to electrophoresis on 12% SDS-polyacrylamide gels and then transferred to polyvinylidene difluoride membranes. The membranes were first incubated with 5% BSA for 2 h at 37°C and then incubated with the first antibodies overnight at 4°C. After HRP-labeled secondary antibodies (1:1,000-dilution) incubation, protein bands were visualized with the enhanced chemiluminescence (ECL) detection solution. The intensity of bands was quantified using ImageJ 1.43 software (National Institutes of Health, Bethesda, MD, USA).

COc1cc(C(=O)CSCc2ccccc2Cl)ccc1O [Compound D31, 2-((2-Chlorobenzyl)thio)-1-(4-Hydroxy-3-Methoxyphenyl)Ethan-1-One]
Papp at 90 min, 20 μM [1]: 12 ± 0.94 ×10⁻⁶ cm/s
Anti-proliferation effect on U87 cells (first screening) (human glioma U87 cells; 10, 20, 100 μM, 48 h, compared with D1, P < 0.05): significant anti-proliferation effects
IC50 (human glioma U87 cells; 48 h): 23.5 µM
IC50 (human glioma U87 cells; 96 h): 21.5 µM
Fluorescence intensity of DCF (ROS generation) vs control (ROS levels in U87 cells): significant increases
Effect on NOX activities vs control (NADPH oxidase (NOX) [2]): no obvious effects
Effect on NOX activities vs control (NADPH oxidase (NOX) [3]): no obvious effects
Apoptotic cell rate (C6 cells; 20 μM): 27.9 ± 4.2%
Apoptotic cell rate (C6 cells; 50 μM): 32.2 ± 5.0%
Apoptotic cell rate (U87 cells; 20 μM): 16.7 ± 3.1%
Apoptotic cell rate (U87 cells; 50 μM): 29.7 ± 4.7%
IκBα expression [4]: obviously decreased
nucleus p-NF-κB p65 expression [4]: obviously increased
p-IKKα/β expression [4]: obviously increased

From publication PMC6733959, “Synthesis and Evaluations of Novel Apocynin Derivatives as Anti-Glioma Agents” (Frontiers in Pharmacology, 2019)
